Patent US9556165B2 (priority 2012, dated 2017)
≈ marks a conversion by molar mass, not a printed value. Where two headings read alike, the source gives them in different places.

Assays:
Type in all cases: cell-based
S. pneumoniae 113 = assay: MIC determination, broth microdilution (CLSI)
E. coli ATCC25922 = assay: MIC determination, broth microdilution (CLSI); settings: Escherichia coli, ATCC25922, strain 1
[1] = tested on: P. aeruginosa 2297 (AmpC wt); assay: MIC determination, broth microdilution (CLSI); settings: Pseudomonas aeruginosa, strain 7
K. pneumoniae 60 = assay: MIC determination, broth microdilution (CLSI); settings: Klebsiella pneumoniae, 60, strain 2
E. cloacae 34654 = assay: MIC determination, broth microdilution (CLSI); settings: Enterobacter cloacae, 34654, strain 3
P. aeruginosa PAO1 = assay: MIC determination, broth microdilution (CLSI); settings: Pseudomonas aeruginosa, PAO1, strain 6
strain 21 = assay: MIC determination, broth microdilution (CLSI)
A. baumannii ATCC15308 = assay: MIC determination, broth microdilution (CLSI); settings: Acinetobacter baumannii, ATCC15308, strain 9
E. coli J62 = assay: MIC determination, broth microdilution (CLSI); settings: Escherichia coli, J62, strain 17
M. morganii 126/3048 = assay: MIC determination, broth microdilution (CLSI); settings: Morganella morganii, 126/3048, strain 5
strain 20 = assay: MIC determination, broth microdilution (CLSI)
strain 19 = assay: MIC determination, broth microdilution (CLSI)
C. freundii K21/3034 = assay: MIC determination, broth microdilution (CLSI); settings: Citrobacter freundii, K21/3034, strain 4
C. perfringens DSM756 = assay: microbe, parasite or virus in culture; settings: Clostridium perfringens, DSM756, read-out: MIC strain 16 (C. perfringens DSM756), strain 16; broth microdilution
[2] = tested on: P. aeruginosa 2297-con (AmpC derepressed); assay: MIC determination, broth microdilution (CLSI); settings: Pseudomonas aeruginosa, read-out: strain 8 MIC, strain 8
S. aureus 133 = assay: MIC determination, broth microdilution (CLSI)
Bacteria = assay: MIC determination in combination with β-lactamase inhibitors (constant 4 μg/mL)
H. influenzae ATCC 49247 = assay: MIC determination, broth microdilution (CLSI); settings: Haemophilus influenzae, ATCC49247, strain 12; broth microdilution; read-out: MIC strain 12 (H. influenzae ATCC 49247)
E. coli J62-TEM-3 = assay: MIC determination, broth microdilution (CLSI); settings: Escherichia coli, J62TEM3, read-out: MIC strain 18 (E. coli J62-TEM-3), strain 18; broth microdilution
S. maltophilia ICB7569 = assay: MIC determination, broth microdilution (CLSI); settings: Stenotrophomonas maltophilia, ICB7569, strain 10
B. fragilis 6688 = assay: MIC determination, broth microdilution (CLSI); settings: Bacteroides fragilis, 6688, strain 15; broth microdilution; read-out: MIC strain 15 (B. fragilis 6688)
[3] = Streptococcus pneumoniae, 113, strain 13, broth microdilution, read-out: MIC strain 13 (S. pneumoniae 113)
[4] = broth microdilution, read-out: MIC strain 17 (E. coli J62)
[5] = Staphylococcus aureus, 133, strain 11, read-out: strain 11 MIC
[6] = Staphylococcus aureus, 133, strain 14, broth microdilution, read-out: MIC strain 14 (S. aureus 133)

| SMILES | MIC (E. coli ATCC25922) | MIC [1] | MIC (K. pneumoniae 60) | MIC (E. cloacae 34654) | MIC (P. aeruginosa PAO1) | MIC (A. baumannii ATCC15308) | MIC (M. morganii 126/3048) | MIC (C. freundii K21/3034) | MIC (S. pneumoniae 113; [3]) | MIC (C. perfringens DSM756) | MIC [2] | MIC (E. coli J62; [4]) | MIC (S. aureus 133; [5]) | MIC strain 19 (E. coli J62-TEM-3 + 4 μg/mL clavulanic acid) (Bacteria) | MIC strain 20 (E. coli J62-TEM-3 + 4 μg/mL sulbactam) (Bacteria) | MIC strain 21 (E. coli J62-TEM-3 + 4 μg/mL tazobactam) (Bacteria) | MIC (H. influenzae ATCC 49247) | MIC (E. coli J62-TEM-3) | MIC (S. maltophilia ICB7569) | MIC (B. fragilis 6688) | also measured |
| --- | --- | --- | --- | --- | --- | --- | --- | --- | --- | --- | --- | --- | --- | --- | --- | --- | --- | --- | --- | --- | --- |
| C[C@@H]1[C@H](NC(=O)/C(=N\OCCOc2ccc(C(=N)N)cc2)c2csc(N)n2)C(=O)N1OS(=O)(=O)O [Example 10, (2Z)-2-(2-Amino-1,3-thiazol-4-yl)-2-{[2-(4-carbamimidoylphenoxy)ethoxy]imino}-N-[(2R,3S)-2-methyl-4-oxo-1-(sulfooxy)azetidin-3-yl]ethanamide] | 0.5 µg/mL (≈ 0.948 µM) | 8 µg/mL (≈ 15.2 µM) | 2 µg/mL (≈ 3.79 µM) | 1 µg/mL (≈ 1.9 µM) | 8 µg/mL (≈ 15.2 µM) | 8 µg/mL (≈ 15.2 µM) | 4 µg/mL (≈ 7.58 µM) | 1 µg/mL (≈ 1.9 µM) |  |  |  |  |  |  |  |  |  |  |  |  | MIC (S. pneumoniae 113; Streptococcus pneumoniae, 113, strain 14, read-out: strain 14 MIC): 2 µg/mL (≈ 3.79 µM); MIC (strain 21): 0.5 µg/mL (≈ 0.948 µM); MIC (E. coli J62; read-out: strain 17 MIC): 0.5 µg/mL (≈ 0.948 µM); MIC (strain 20): 0.5 µg/mL (≈ 0.948 µM); MIC (strain 19): 0.5 µg/mL (≈ 0.948 µM) |
| CN1CC[C@H](NC(=N)c2ccc(OC[C@H](O/N=C(\C(=O)N[C@@H]3C(=O)N(OS(=O)(=O)O)C3(C)C)c3csc(N)n3)C(=O)O)cc2)C1 [Example 101] | 0.125 µg/mL (≈ 0.187 µM) | 4 µg/mL (≈ 5.98 µM) | 0.125 µg/mL (≈ 0.187 µM) | 0.125 µg/mL (≈ 0.187 µM) | 2 µg/mL (≈ 2.99 µM) | 4 µg/mL (≈ 5.98 µM) | 0.125 µg/mL (≈ 0.187 µM) | 0.125 µg/mL (≈ 0.187 µM) | 0.5 µg/mL (≈ 0.748 µM) | 2 µg/mL (≈ 2.99 µM) | 2 µg/mL (≈ 2.99 µM) | 0.125 µg/mL (≈ 0.187 µM) | ≤ 0.063 µg/mL | ≦0.063 mg/L | ≦0.063 mg/L | 0.125 µg/mL | ≤ 0.063 µg/mL | 8 µg/mL (≈ 12 µM) | 8 µg/mL (≈ 12 µM) | 8 µg/mL (≈ 12 µM) |  |
| CC1(C)[C@H](NC(=O)/C(=N\O[C@@H](COc2ccc(C(=N)NC(CN)CN)cc2)C(=O)O)c2csc(N)n2)C(=O)N1OS(=O)(=O)O [Example 102, (2S)-2-({[(1Z)-1-(2-Amino-1,3-thiazol-4-yl)-2-{[(3S)-2,2-dimethyl-4-oxo-1-(sulfooxy)azetidin-3-yl]amino}-2-oxoethylidene]amino}oxy)-3-{4-[N-(1,3-diaminopropan-2-yl)carbamimidoyl]phenoxy}propanoic acid] | 0.125 µg/mL (≈ 0.19 µM) | 2 µg/mL (≈ 3.04 µM) | ≤ 0.063 µg/mL | 0.25 µg/mL (≈ 0.38 µM) | 1 µg/mL (≈ 1.52 µM) | 4 µg/mL (≈ 6.08 µM) | ≤ 0.063 µg/mL | ≤ 0.063 µg/mL | 0.5 µg/mL (≈ 0.76 µM) | 2 µg/mL (≈ 3.04 µM) | 2 µg/mL (≈ 3.04 µM) | 0.125 µg/mL (≈ 0.19 µM) | ≤ 0.063 µg/mL | ≦0.063 mg/L | ≦0.063 mg/L | 0.125 µg/mL | ≤ 0.063 µg/mL | 4 µg/mL (≈ 6.08 µM) | 4 µg/mL (≈ 6.08 µM) | 8 µg/mL (≈ 12.2 µM) |  |
| CC1(C)[C@H](NC(=O)/C(=N\O[C@@H](COc2ccc(C(=N)NC3CNCC3N)cc2)C(=O)O)c2csc(N)n2)C(=O)N1OS(=O)(=O)O (stereo partly drawn) [Example 106, (2S)-3-{4-[N-(4-Aminopyrrolidin-3-yl)carbamimidoyl]phenoxy}-2-({[(1Z)-1-(2-amino-1,3-thiazol-4-yl)-2-{[(3S)-2,2-dimethyl-4-oxo-1-(sulfooxy)azetidin-3-yl]amino}-2-oxoethylidene]amino}oxy)propanoic acid] | 0.125 µg/mL (≈ 0.187 µM) | 2 µg/mL (≈ 2.99 µM) | 0.125 µg/mL (≈ 0.187 µM) | 0.125 µg/mL (≈ 0.187 µM) | 1 µg/mL (≈ 1.49 µM) | 2 µg/mL (≈ 2.99 µM) | ≤ 0.063 µg/mL | 0.125 µg/mL (≈ 0.187 µM) | 0.5 µg/mL (≈ 0.747 µM) | 1 µg/mL (≈ 1.49 µM) | 1 µg/mL (≈ 1.49 µM) | 0.125 µg/mL (≈ 0.187 µM) | ≤ 0.063 µg/mL | 0.125 µg/mL | ≦0.063 mg/L | 0.125 µg/mL | ≤ 0.063 µg/mL | 8 µg/mL (≈ 11.9 µM) | 4 µg/mL (≈ 5.97 µM) | 8 µg/mL (≈ 11.9 µM) |  |
| CC1(C)[C@H](NC(=O)/C(=N\O[C@@H](COc2ccc(C(=N)NC3CNC3)cc2)C(=O)O)c2csc(N)n2)C(=O)N1OS(=O)(=O)O [Example 107, (2S)-2-({[(1Z)-1-(2-Amino-1,3-thiazol-4-yl)-2-{[(3S)-2,2-dimethyl-4-oxo-1-(sulfooxy)azetidin-3-yl]amino}-2-oxoethylidene]amino}oxy)-3-{4-[N-(azetidin-3-yl)carbamimidoyl]phenoxy}propanoic acid] | ≤ 0.063 µg/mL | 1 µg/mL (≈ 1.56 µM) | 0.125 µg/mL (≈ 0.195 µM) | 0.25 µg/mL (≈ 0.39 µM) | 1 µg/mL (≈ 1.56 µM) | 1 µg/mL (≈ 1.56 µM) | ≤ 0.063 µg/mL | ≤ 0.063 µg/mL | 0.5 µg/mL (≈ 0.78 µM) | 0.125 µg/mL (≈ 0.195 µM) | 1 µg/mL (≈ 1.56 µM) | 0.125 µg/mL (≈ 0.195 µM) | ≤ 0.063 µg/mL | ≦0.063 mg/L | ≦0.063 mg/L | ≦0.063 mg/L | ≤ 0.063 µg/mL | 4 µg/mL (≈ 6.24 µM) | 4 µg/mL (≈ 6.24 µM) | 8 µg/mL (≈ 12.5 µM) | MIC (S. aureus 133; [6]): 32 µg/mL (≈ 49.9 µM) |
| CC1(C)[C@H](NC(=O)/C(=N\O[C@@H](COc2ccc(C(=N)NC3CCNCC3)cc2)C(=O)O)c2csc(N)n2)C(=O)N1OS(=O)(=O)O [Example 108, (2S)-2-({[(1Z)-1-(2-Amino-1,3-thiazol-4-yl)-2-{[(3S)-2,2-dimethyl-4-oxo-1-(sulfooxy)-azetidin-3-yl]amino}-2-oxoethylidene]amino}oxy)-3-{4-[N-(piperidin-4-yl)carbamimidoyl]phenoxy}propanoic acid] | 0.125 µg/mL (≈ 0.187 µM) | 1 µg/mL (≈ 1.5 µM) | 0.125 µg/mL (≈ 0.187 µM) | 0.125 µg/mL (≈ 0.187 µM) | 0.5 µg/mL (≈ 0.748 µM) | 1 µg/mL (≈ 1.5 µM) | ≤ 0.063 µg/mL | ≤ 0.063 µg/mL | 0.5 µg/mL (≈ 0.748 µM) | 1 µg/mL (≈ 1.5 µM) | 1 µg/mL (≈ 1.5 µM) | 0.125 µg/mL (≈ 0.187 µM) | ≤ 0.063 µg/mL | ≦0.063 mg/L | ≦0.063 mg/L | 0.125 µg/mL | ≤ 0.063 µg/mL | 4 µg/mL (≈ 5.98 µM) | 4 µg/mL (≈ 5.98 µM) | 8 µg/mL (≈ 12 µM) | MIC (S. aureus 133; [6]): 32 µg/mL (≈ 47.9 µM) |
| CN1CC(NC(=N)c2ccc(OC[C@H](O/N=C(\C(=O)N[C@@H]3C(=O)N(OS(=O)(=O)O)C3(C)C)c3csc(N)n3)C(=O)O)cc2)C1 [Example 109] | 0.125 µg/mL (≈ 0.191 µM) | 2 µg/mL (≈ 3.05 µM) | 0.125 µg/mL (≈ 0.191 µM) | 0.125 µg/mL (≈ 0.191 µM) | 2 µg/mL (≈ 3.05 µM) | 2 µg/mL (≈ 3.05 µM) | 0.125 µg/mL (≈ 0.191 µM) | 0.125 µg/mL (≈ 0.191 µM) | 0.5 µg/mL (≈ 0.764 µM) | 4 µg/mL (≈ 6.11 µM) | 2 µg/mL (≈ 3.05 µM) | 0.125 µg/mL (≈ 0.191 µM) | ≤ 0.063 µg/mL | ≦0.063 mg/L | 0.25 µg/mL | 0.125 µg/mL | ≤ 0.063 µg/mL | 2 µg/mL (≈ 3.05 µM) | 8 µg/mL (≈ 12.2 µM) | 16 µg/mL (≈ 24.4 µM) |  |
| CC1(C)[C@H](NC(=O)/C(=N\O[C@@H](COc2ccc(C(=N)NCCNc3ncccn3)cc2)C(=O)O)c2csc(N)n2)C(=O)N1OS(=O)(=O)O [Example 110, (2S)-2-({[(1Z)-1-(2-Amino-1,3-thiazol-4-yl)-2-{[(3S)-2,2-dimethyl-4-oxo-1-(sulfooxy)azetidin-3-yl]amino}-2-oxoethylidene]amino}oxy)-3-(4-{N-[2-(pyrimidin-2-ylami-no)ethyl]carbamimidoyl}phenoxy)propanoic acid] | 0.5 µg/mL (≈ 0.707 µM) | 8 µg/mL (≈ 11.3 µM) | 1 µg/mL (≈ 1.41 µM) | 1 µg/mL (≈ 1.41 µM) | 8 µg/mL (≈ 11.3 µM) | 32 µg/mL (≈ 45.3 µM) | 0.25 µg/mL (≈ 0.354 µM) | 0.5 µg/mL (≈ 0.707 µM) | 0.25 µg/mL (≈ 0.354 µM) | 8 µg/mL (≈ 11.3 µM) | 16 µg/mL (≈ 22.6 µM) | 1 µg/mL (≈ 1.41 µM) | ≤ 0.063 µg/mL | 0.5 µg/mL | 0.5 µg/mL | 0.5 µg/mL | ≤ 0.063 µg/mL | 32 µg/mL (≈ 45.3 µM) | 8 µg/mL (≈ 11.3 µM) | 16 µg/mL (≈ 22.6 µM) |  |
